The test system of experiment [1] is Staphylococcus aureus A798. Kind of experiment: Bacterial growth minimal inhibitory concentration (microdilution, cation-adjusted Mueller-Hinton Broth). It is filed as cell-based. The conditions noted are these: multiply-resistant strain, in particular quinolone resistant, read-out: MIC for S. aureus A798. The protocol:
(§1) Bacterial Growth Minimal Inhibitory Concentrations:
(§2) Minimal inhibitory concentrations (MICs; mg/l) were determined in cation-adjusted Mueller-Hinton Broth by a microdilution method following the description given in “Methods for Dilution Antimicrobial Susceptibility Tests for Bacteria that Grow Aerobically”, Approved standard, 7th ed., Clinical and Laboratory Standards Institute (CLSI) Document M7-A7, Wayne, Pa., USA, 2006.
(§3) All Example compounds were tested against several Gram positive and Gram negative bacteria. Staphylococcus aureus A798 and Acinetobacter baumanii T6474 are multiply-resistant strains, in particular quinolone resistant.
On the technique in general: In broth dilution the organism is exposed to a series of concentrations in liquid medium.

For experiment [2], the system named is Acinetobacter baumanii T6474. Described as above. Type of experiment: cell-based. The conditions noted are these: Acinetobacter baumannii, multiply-resistant strain, in particular quinolone resistant. The protocol: as §1, §2, §3

Each structure is given as a SMILES string. Values after ≈ are worked out from the molar mass of the structure shown. Bounds are passed on as bounds.

For the molecule `O=C1COc2ccc(N3C[C@@H](CNC4CN(c5ccc6c(=O)c(C(=O)O)cn(C7CC7)c6n5)C4)OC3=O)nc2N1` [Example 14, 1-cyclopropyl-4-oxo-7-(3-{[(R)-2-oxo-3-(3-oxo-3,4-dihydro-2H-pyrido[3,2-b][1,4]oxazin-6-yl)-oxazolidin-5-ylmethyl]-amino}-azetidin-1-yl)-1,4-dihydro-[1,8]naphthyridine-3-carboxylic acid], the MIC (as a rule, the smallest concentration in the dilution series that meets the test's criterion for growth inhibition) in experiment [1] was 0.031 µg/mL (≈ 0.0566 µM); in experiment [2] it was 0.06 µg/mL (≈ 0.11 µM).
For the molecule `COc1c(N2CC(NC[C@@H]3CN(c4ccc5c(c4)NC(=O)CS5)C(=O)O3)C2)ccc2c(=O)c(C(=O)O)cn(C3CC3)c12` [Example 7, 1-cyclopropyl-8-methoxy-4-oxo-7-(3-{[(R)-2-oxo-3-(3-oxo-3,4-dihydro-2H-benzo[1,4]thiazin-6-yl)-oxazolidin-5-ylmethyl]-amino}-azetidin-1-yl)-1,4-dihydro-quinoline-3-carboxylic acid], the values for the MIC in experiment [1] and in experiment [2] were 0.063 µg/mL (≈ 0.106 µM) and 0.25 µg/mL (≈ 0.423 µM), respectively.
Regarding `O=C1COc2ccc(N3C[C@H](CNC4CCN(c5nc6c(cc5F)c(=O)c(C(=O)O)cn6C5CC5)C4)OC3=O)nc2N1` (mixture of isomers) [Example 21, 1-cyclopropyl-6-fluoro-4-oxo-7-((RS)-3-{[(S)-2-oxo-3-(3-oxo-3,4-dihydro-2H-pyrido[3,2-b][1,4]oxazin-6-yl)-oxazolidin-5-ylmethyl]-amino}-pyrrolidin-1-yl)-1,4-dihydro-[1,8]naphthyridine-3-carboxylic acid], the MIC in experiment [1] was 0.125 µg/mL; in experiment [2], 0.25 µg/mL.
Take `O=C1CSc2ccc(N3C[C@@H](CN4CCN(c5nc6c(cc5F)c(=O)c(C(=O)O)cn6C5CC5)CC4)OC3=O)cc2N1` [Example 4, 1-cyclopropyl-6-fluoro-4-oxo-7-{4-[(R)-2-oxo-3-(3-oxo-3,4-dihydro-2H-benzo[1,4]thiazin-6-yl)-oxazolidin-5-ylmethyl]-piperazin-1-yl}-1,4-dihydro-[1,8]naphthyridine-3-carboxylic acid]: the minimal inhibitory concentration (MIC) is at most 0.016 µg/mL in experiment [1] and 0.125 µg/mL (≈ 0.21 µM) in experiment [2].
Turning to `O=C1COc2ccc(N3C[C@@H](CNC4CN(c5nc6c(cc5F)c(=O)c(C(=O)O)cn6Cc5ccccc5)C4)OC3=O)nc2N1` [Example 13, 1-benzyl-6-fluoro-4-oxo-7-(3-{[(R)-2-oxo-3-(3-oxo-3,4-dihydro-2H-pyrido[3,2-b][1,4]oxazin-6-yl)-oxazolidin-5-ylmethyl]-amino}-azetidin-1-yl)-1,4-dihydro-[1,8]naphthyridine-3-carboxylic acid], the values for the MIC in experiment [1] and in experiment [2] were at most 0.016 µg/mL and 1 µg/mL (≈ 1.62 µM), respectively.
Take `O=C1COc2ccc(N3C[C@H](CN4CCN(c5nc6c(cc5F)c(=O)c(C(=O)O)cn6C5CC5)CC4)OC3=O)nc2N1` [Example 19, 1-cyclopropyl-6-fluoro-4-oxo-7-{4-[(S)-2-oxo-3-(3-oxo-3,4-dihydro-2H-pyrido[3,2-b][1,4]oxazin-6-yl)-oxazolidin-5-ylmethyl]-piperazin-1-yl}-1,4-dihydro-[1,8]naphthyridine-3-carboxylic acid]: the figures for the MIC in experiment [1] and in experiment [2] were at most 0.016 µg/mL and 0.063 µg/mL (≈ 0.109 µM), respectively.
In the same order, the values of `CCn1cc(C(=O)O)c(=O)c2ccc(N3CC(NC[C@@H]4CN(c5ccc6c(n5)NC(=O)CO6)C(=O)O4)C3)nc21` [Example 9, 1-ethyl-4-oxo-7-(3-{[(R)-2-oxo-3-(3-oxo-3,4-dihydro-2H-pyrido[3,2-b][1,4]oxazin-6-yl)-oxazolidin-5-ylmethyl]-amino}-azetidin-1-yl)-1,4-dihydro-[1,8]naphthyridine-3-carboxylic acid] are 0.063 µg/mL (≈ 0.118 µM) and 0.06 µg/mL (≈ 0.112 µM).
Regarding `O=C1COc2ccc(N3C[C@H](CNC4CN(c5nc6c(cc5F)c(=O)c5c(O)nsc5n6C5CC5)C4)OC3=O)nc2N1` [Example 24, 9-cyclopropyl-6-fluoro-3-hydroxy-7-(3-{[(S)-2-oxo-3-(3-oxo-3,4-dihydro-2H-pyrido[3,2-b][1,4]oxazin-6-yl)-oxazolidin-5-ylmethyl]-amino}-azetidin-1-yl)-9H-1-thia-2,8,9-triaza-cyclopenta[b]naphthalen-4-one], the results for the MIC in experiment [1] and in experiment [2] were at most 0.016 µg/mL and 0.063 µg/mL (≈ 0.106 µM), respectively.
As for `O=C1COc2ccc(N3C[C@H](CNC[C@@H]4CCN(c5nc6c(cc5F)c(=O)c(C(=O)O)cn6C5CC5)C4)OC3=O)nc2N1` [Example 22, 1-cyclopropyl-6-fluoro-4-oxo-7-[(S)-3-({[(S)-2-oxo-3-(3-oxo-3,4-dihydro-2H-pyrido[3,2-b][1,4]oxazin-6-yl)-oxazolidin-5-ylmethyl]-amino}-methyl)-pyrrolidin-1-yl]-1,4-dihydro-[1,8]naphthyridine-3-carboxylic acid], the values for the MIC in experiment [1] and in experiment [2] were 0.125 µg/mL (≈ 0.211 µM) and 0.031 µg/mL (≈ 0.0522 µM), respectively.
Consider `COc1c(N2CC(NC[C@@H]3CN(c4ccc5c(n4)NC(=O)CO5)C(=O)O3)C2)ccc2c(=O)c(C(=O)O)cn(C3CC3)c12` [Example 8, 1-cyclopropyl-8-methoxy-4-oxo-7-(3-{[(R)-2-oxo-3-(3-oxo-3,4-dihydro-2H-pyrido[3,2-b][1,4]oxazin-6-yl)-oxazolidin-5-ylmethyl]-amino}-azetidin-1-yl)-1,4-dihydro-quinoline-3-carboxylic acid], for which the MIC in experiment [1] was found to be 0.063 µg/mL (≈ 0.109 µM); in experiment [2], 0.25 µg/mL (≈ 0.434 µM).
`O=C1CSc2ccc(N3C[C@@H](CN4CCN(c5cc6c(cc5F)c(=O)c(C(=O)O)cn6C5CC5)CC4)OC3=O)nc2N1` [Example 3, 1-cyclopropyl-6-fluoro-4-oxo-7-{4-[(R)-2-oxo-3-(3-oxo-3,4-dihydro-2H-pyrido[3,2-b][1,4]thiazin-6-yl)-oxazolidin-5-ylmethyl]-piperazin-1-yl}-1,4-dihydro-quinoline-3-carboxylic acid]: the MIC in experiment [1] is at most 0.016 µg/mL; in experiment [2], 0.063 µg/mL (≈ 0.106 µM).
`O=C1COc2ccc(N3C[C@@H](CNC4CN(c5nc6c(cc5F)c(=O)c(C(=O)O)cn6C5CC5)C4)OC3=O)nc2N1` [Example 6, 1-cyclopropyl-6-fluoro-4-oxo-7-(3-{[(R)-2-oxo-3-(3-oxo-3,4-dihydro-2H-pyrido[3,2-b][1,4]oxazin-6-yl)-oxazolidin-5-ylmethyl]-amino}-azetidin-1-yl)-1,4-dihydro-[1,8]naphthyridine-3-carboxylic acid]: the results for the MIC in experiment [1] and in experiment [2] were at most 0.016 µg/mL and 0.031 µg/mL (≈ 0.0548 µM), respectively.
`Cn1cc(C(=O)O)c(=O)c2ccc(N3CC(NC[C@@H]4CN(c5ccc6c(n5)NC(=O)CO6)C(=O)O4)C3)nc21` [Example 11, 1-methyl-4-oxo-7-(3-{[(R)-2-oxo-3-(3-oxo-3,4-dihydro-2H-pyrido[3,2-b][1,4]oxazin-6-yl)-oxazolidin-5-ylmethyl]-amino}-azetidin-1-yl)-1,4-dihydro-[1,8]naphthyridine-3-carboxylic acid]: the MIC in experiment [1] and in experiment [2] was 0.063 µg/mL (≈ 0.121 µM) each time.
For the molecule `O=C1COc2ccc(N3C[C@@H](CNC4CCN(c5nc6c(cc5F)c(=O)c(C(=O)O)cn6C5CC5)CC4)OC3=O)nc2N1` [Example 17, 1-cyclopropyl-6-fluoro-4-oxo-7-(4-{[(R)-2-oxo-3-(3-oxo-3,4-dihydro-2H-pyrido[3,2-b][1,4]oxazin-6-yl)-oxazolidin-5-ylmethyl]-amino}-piperidin-1-yl)-1,4-dihydro-[1,8]naphthyridine-3-carboxylic acid], the MIC in experiment [1] and in experiment [2] was at most 0.016 µg/mL in each case.
Take `O=C1CSc2ccc(N3C[C@@H](CN4CCN(c5cc6c(cc5F)c(=O)c(C(=O)O)cn6C5CC5)CC4)OC3=O)cc2N1` [Example 1, 1-cyclopropyl-6-fluoro-4-oxo-7-{4-[(R)-2-oxo-3-(3-oxo-3,4-dihydro-2H-benzo[1,4]thiazin-6-yl)-oxazolidin-5-ylmethyl]-piperazin-1-yl}-1,4-dihydro-quinoline-3-carboxylic acid]: the values for the MIC in experiment [1] and in experiment [2] were at most 0.016 µg/mL and 0.125 µg/mL (≈ 0.211 µM), respectively.
As to `O=C1CSc2ccc(N3C[C@@H](CNC4CN(c5ccc6c(=O)c(C(=O)O)cn(C7CC7)c6n5)C4)OC3=O)cc2N1` [Example 10, 1-cyclopropyl-4-oxo-7-(3-{[(R)-2-oxo-3-(3-oxo-3,4-dihydro-2H-benzo[1,4]thiazin-6-yl)-oxazolidin-5-ylmethyl]-amino}-azetidin-1-yl)-1,4-dihydro-[1,8]naphthyridine-3-carboxylic acid], the figures for the MIC in experiment [1] and in experiment [2] were 0.063 µg/mL (≈ 0.112 µM) and 0.25 µg/mL (≈ 0.444 µM), respectively.
On to `O=C1COc2ccc(N3C[C@H](CNC4CCN(c5nc6c(cc5F)c(=O)c5c(O)nsc5n6C5CC5)CC4)OC3=O)nc2N1` [Example 23, 9-cyclopropyl-6-fluoro-3-hydroxy-7-(4-{[(S)-2-oxo-3-(3-oxo-3,4-dihydro-2H-pyrido[3,2-b][1,4]oxazin-6-yl)-oxazolidin-5-ylmethyl]-amino}-piperidin-1-yl)-9H-1-thia-2,8,9-triaza-cyclopenta[b]naphthalen-4-one], for which the MIC in experiment [1] and in experiment [2] was at most 0.016 µg/mL each time.
In the case of `O=C1COc2ccc(N3C[C@H](CNC4CCN(c5nc6c(cc5F)c(=O)c(C(=O)O)cn6C5CC5)CC4)OC3=O)nc2N1` [Example 20, 1-cyclopropyl-6-fluoro-4-oxo-7-(4-{[(S)-2-oxo-3-(3-oxo-3,4-dihydro-2H-pyrido[3,2-b][1,4]oxazin-6-yl)-oxazolidin-5-ylmethyl]-amino}-piperidin-1-yl)-1,4-dihydro-[1,8]naphthyridine-3-carboxylic acid], the MIC in experiment [1] and in experiment [2] was at most 0.016 µg/mL throughout.
Take `O=C1CSc2ccc(N3C[C@H](CN4CCN(c5nc6c(cc5F)c(=O)c(C(=O)O)cn6C5CC5)CC4)OC3=O)cc2N1` [Example 16, 1-cyclopropyl-6-fluoro-4-oxo-7-{4-[(S)-2-oxo-3-(3-oxo-3,4-dihydro-2H-benzo[1,4]thiazin-6-yl)-oxazolidin-5-ylmethyl]-piperazin-1-yl}-1,4-dihydro-[1,8]naphthyridine-3-carboxylic acid]: the minimal inhibitory concentration (MIC) in experiment [1] is at most 0.016 µg/mL; in experiment [2] it was 0.125 µg/mL (≈ 0.21 µM).

The values are drawn from US9079922B2, “2-oxo-oxazolidin-3,5-diyl antibiotic derivatives” (priority 2011, dated 2015).
